Assay results: patent US20030027981A1, “Urokinase-type plasminogen activator receptor” (priority 1989, published 2003)

Test system: cell-bound pro-u-PA
Assay: Pro-u-PA index of cell-bound u-PA on HT-1080 cells (immunocapture assay with NPGB step)
Assay type: cell-based, human
Settings: for Pro-u-PA index (%): 2 h, serum medium, all with Plg 40 μg/ml, aprotinin (200 KIU/ml), anti-Plg-1 (20 μg/ml), TA (100 μM) rows also with anti-PAI-1 10 μg/ml
Experimental: FIG. 27. Activation of cell-bound u-PA proenzyme in serum medium after the addition of plasminogen. Confluent layers of HT-1080 cells were incubated with MEM medium containing 10% heat-inactivated and plasminogen-depleted fetal calf serum and native human plasminogen (40 μg/ml). After the time intervals shown, aprotinin (200 KIU/ml) was added and the rinsed cells were treated with acid-glycine to recover the bound fraction of u-PA. The u-PA in the neutralized eluate was assayed by an immunocapture method, using an NPGB inactivation step to determined the pro-u-PA index (see Methods).
Cell culture supernatants were assayed for pro-u-PA and active u-PA by the following modification of an immunocapture method (Stephens et al., 1988; Stephens et al., 1987). Microtitre wells of polystyrene immunoplates (type 269620, A/S Nunc, Roskilde, Denmark) were coated overnight at 37° C. with 50 μl of a solution of goat IgG antibodies to human u-PA (cat. #398, American Diagnostica). The coating solution contained 2.5 μg of IgG per ml of […] sodium carbonate (pH 9.8). After rinsing, the wells were treated with conditioned medium ([…]) for 2 hours at 23° C., then rinsed again. Half the wells were then treated with 50 μl of freshly prepared 2 μM p-nitrophenyl guanidinobenzoate (NPGB, Sigma) (Danø, K., and E. Reich, “Plasminogen activator from cells transformed by an oncogenic virus—Inhibitors of the activator reaction”, Biochim. Biophys. Acta 566: 138-151, 1979) for 20 minutes at 37° C. The other half (controls) received 50 μl of rinsing buffer (0.05% Tween 20 in PBS). After rinsing, u-PA was assayed in all the wells by addition of 40 μl of plasminogen solution (100 μg/ml in assay buffer consisting of 50 mM sodium glycinate (pH 7.8), 0.1% Triton X-100, 0.1% gelatin and 10 mM 6-aminocaproic acid which also contained a very low concentration of plasmin (10 ng/ml)), and incubation took place for 30 minutes at 37° C. This concentration of plasmin in the plasminogen incubation was sufficient to enable full realization of the potential activity of pro-u-PA (cf. Petersen et al., 1988). […] This mixture was incubated for 30 minutes at 37° C., and the absorbancies of the wells were read at 405 nm. […]
Pro-u-PA and active u-PA bound to the cell layer were recovered for immunocapture assays by the same method as was used in the metabolic labelling (see above). […] For conditioned medium and cell-bound u-PA, the u-PA activity assayed after NPGB treatment was expressed as a percentage of the total activity obtained without NPGB treatment, and this percentage used as an index of pro-u-PA content (pro-u-PA index). […]

Compound: NC[C@H]1CC[C@H](C(=O)O)CC1 [TA, tranexamic acid]
- Pro-u-PA index (%): 88%

Compound: Plg: native human plasminogen (glutamic acid N-terminal) purified from human plasma on lysine-Sepharose
- Pro-u-PA index (%): 50%
- Proportion of total surface-bound u-PA present as pro-u-PA (cells incubated with human plasminogen 40 μg/ml in serum medium, plasminogen-free cultures approximately 90%): approximately 10%

Compound: aprotinin
- Pro-u-PA index (%): 93%
